Tested on: HUVEC-12 endothelial cells
Assay: Tubule formation of HUVEC-12 endothelial cells (Matrigel)
Format: cell-based, Human
Method: The experiment included seven groups. In Group 1, HUVEC-12 endothelial cells (purchased from Shanghai RongChuang Biotech Co., Ltd.) were treated directly with simple DMEM medium (Gibcol, Shanghai) containing 10% FBS (SERANA, Germany) (control). In Group 2, the endothelial cells were treated with the supernatant obtained 24 h after macrophages were cultured with DMEM medium containing 10% FBS (s-control). In Group 3, the endothelial cells cultured with DMEM medium containing 10% FBS were treated directly with TG-028 (TG-028, 10 μM). In Group 4, the endothelial cells were treated with the supernatant obtained after macrophages cultured with DMEM medium containing 10% FBS were treated and co-incubated with TG-028 for 24 h (s-TG-028, […]). In Group 5, the endothelial cells cultured with DMEM medium containing 10% FBS were treated directly with Cpd-18 (Salvianolate) (cpd-18, 10 μM). In Group 6, the endothelial cells were treated with the supernatant obtained after macrophages cultured with DMEM medium containing 10% FBS were treated and co-incubated with Cpd-18 (Salvianolate, 10 μM) for 24 h (s-cpd18). In Group 7, the endothelial cells cultured with DMEM medium containing 10% FBS were treated directly with VEGFD (Recombinant Human VEGF165, 10 ng/mL).
A 96-well plate and sterile yellow pipette tip were stored overnight in a refrigerator at −20° C. The packed Matrigel was thawed overnight in a refrigerator at 4° C. before the experiment. On the following day, the Matrigel thawed was centrifuged for a few minutes. 60 μL per well of the pre-cooled Matrigel was added to a 96-well plate in an ice bath on a ultra-clean bench, and then allowed to stand in an incubator for 1 h. After Matrigel was solidified, HUVEC-12 cells in logarithmic growth phase were taken and adjusted for the cell density. The cells were well mixed with each group of medium at a density of 5×10^4 cells/well and inoculated into a 96-well plate. […] The tube-like structure was analyzed by ImageJ image-analysis software, and the tube formation ability was evaluated using number of master junction as a quantitative index.

COc1ccc(CCCCO[C@@H]2O[C@H](CO)[C@@H](O)[C@H](O)[C@H]2O)cc1 [TG-028]
effect on tube formation of endothelial cells (in words) (HUVEC-12 treated with supernatant of macrophages co-incubated 24 h with compound, 10 μM (s- groups)): comparable effect on the tube formation of endothelial cells as VEGF | effect on tube formation of endothelial cells (in words) (direct treatment of HUVEC-12, 3 h, compounds 10 μM, VEGF165 10 ng/mL, vs control medium): significant effect on the tube formation of endothelial cells

Reference: US11325937B2, “Glycoside compound and preparation method therefor, composition, application, and intermediate” (SHANGHAI HUTCHISON PHARMACEUTICALS LIMITED, priority 2018, dated 2022)
